The numbers were not newly measured in patent publication US20060089319A1, “Method for treatment and prevention of bacterial vaginosis” (priority 2004, published 2006), which cites them from elsewhere.

The test system of the data set is bacterial vaginosis.

On to `Cc1ncc([N+](=O)[O-])n1CCO` [metronidazole], for which the “hospital admissions for preterm labor, preterm births, PROM, and low-birth-weight infants” value (oral, high-risk women with previous preterm delivery, double-blind study by Morales et al.) is given as “fewer”. Besides, the “long-term suppression of bacterial vaginosis flora (duration)” value (oral, pregnant women, two separate studies) is listed as 2-3 months. The “treatment of bacterial vaginosis in pregnant women, thereby preventing preterm delivery” value (pregnant women, numerous studies) is “effective treatment”.
